Reference: article PMC12073438, “Stereoselectivity of In Vivo Processes and Bioactivity of Farrerol Enantiomers” (Molecules, 2025)
Where two headings read alike, the source gives them in different places.

Columns and labels:
[1] = molecular target: CYP2D6 (Homo sapiens, UniProt P10635); test: CYP inhibition in liver microsomes (dextromethorphan); type: in vitro ADME; settings: CYP 2D6, marker substrate dextromethorphan
Description: (§1) A liver microsome working solution (20 mg/mL) contained potassium phosphate buffer (0.1 M, pH 7.4), hepatic microsomes and marker substrate solution, which phenacetin, diclofenic acid, S-mephenytoinwer, dextromethorphan, midazolam, coumarin and chlorzoxazone used as substrates for […], CYP2C9, CYP2C19, CYP2D6, CYP3A4/5, CYP2A6 and CYP2E1, respectively. In brief, 238.5 µL of liver microsome working solution was placed in a 1 mL EP tube. […] The reaction was started by injecting NADPH (1 mM), and the resulting mixture was incubated at 37 °C for 10 min. After centrifuging at 4000 rpm for 15 min, the supernatant was transferred and analyzed using LC-MS/MS to detect the corresponding metabolites. Each incubation was conducted in triplicate (n = 3).
An API 4000 LC/tandem mass spectrometry was used to analyze the concentration of metabolites of various chemical agents using a validated mode. An Atlantis T3 column (2.1 mm × 50 mm, 5 μm) was utilized, employing mobile phases consisting of a 0.1% formic acid solution (A) and a 0.1% acetonitrile formate solution (B). […] MRM was utilized to quantify each metabolite, detecting the following transitions: m/z 152.1/110 for acetaminophen, 312.1/230.0 for 4′-Hydroxydiclofenac, 235.0/150.0 for 4′-hydroxymephentoin, 258.2/199.1 for Dextrorphan, 342.1/203.0 for 1′-hydroxymidazolam, 161.1/133.1 for hydroxycoumarin, and 184.0/120.0 for 6-hydroxyclozoxadone.

[2] = test system: CYP3A4/5; test: CYP inhibition in liver microsomes (midazolam); settings: CYP 3A4/5(M); marker substrate midazolam; liver microsomes
Description: as §1
(§2) An API 4000 LC/tandem mass spectrometry was used to analyze the concentration of metabolites of various chemical agents using a validated mode. An Atlantis T3 column (2.1 mm × 50 mm, 5 μm) was utilized, employing mobile phases consisting of a 0.1% formic acid solution (A) and a 0.1% acetonitrile formate solution (B). […] As for the detection of CYP 2E1 metabolite, the Flow composition was as follows: 0–0.30 min, 10% B; 0.30–1.30 min, 10–55% B; 1.30–1.50 min, 55–95% B; 1.50–2.00 min, 95% B; 2.00–2.01 min, 95–10% B; the low rate was 0.85 mL/min. ESI was conducted in positive ion mode. MRM was utilized to quantify each metabolite, detecting the following transitions: m/z 152.1/110 for acetaminophen, 312.1/230.0 for 4′-Hydroxydiclofenac, 235.0/150.0 for 4′-hydroxymephentoin, 258.2/199.1 for Dextrorphan, 342.1/203.0 for 1′-hydroxymidazolam, 161.1/133.1 for hydroxycoumarin, and 184.0/120.0 for 6-hydroxyclozoxadone.

[3] = Rat single-pass intestinal perfusion; type: in vivo, Sprague–Dawley rats
Description: The absorption rate constant (Ka) and permeability coefficient (Peff) were calculated using the following equation: […] The single-pass intestinal perfusion studies in rats were conducted following previously established methodologies. […] Before the surgical procedure, animals were fasted overnight with water ad libitum. Rats were anesthetized via intraperitoneal administration of 20% urethane at a dosage of 6 mL/kg and subsequently positioned on a heating pad. Their normal body temperature (37.0 ± 0.5 °C) was sustained using an infrared lamp. A midline incision was made to open the abdomen, allowing for the exposure of 35–45 cm of the small intestine, along with a 10 cm segment […]. This segment was cannulated with Teflon tubing (0.42 cm in diameter) at both the proximal and distal ends, which were then secured with silk sutures. This segment was gently flushed with warmed normal saline to remove intestinal contents. Then, farrerol racemate maintained at 37 °C was perfused through the lumen of the small intestine at a flow rate of 0.2 mL/min. After a 30 min equilibration period to reach steady-state outlet concentrations, the perfusate samples were collected every 15 min for 120 min in micro-centrifuge tubes. The length of the small intestinal segment was measured following the last collection. All collected samples were stored at −20 °C. 500 μL of collected intestinal perfusion samples were placed in an EP tube and then dried with nitrogen at 37 °C. The residue was redissolved and precipitated with 200 μL of methanol by vortex-mixing for 5 min. Following centrifugation at 13,000 rpm for 10 min, the supernatant samples were analyzed using the previously validated RP-HPLC-DAD method. The chiral HPLC technique employed for the analysis of farreol enantiomers in intestinal perfusate aligned with the chromatographic procedure outlined in Section 3.4.3. This method underwent validation for parameters including linearity, range, extraction recovery, specificity, precision, and accuracy. […] The extraction recoveries of farrerol in intestinal perfusate at three different concentration levels ranged from 90.57% to 95.57%.

[4] = molecular target: T1, CYP2A6 (Homo sapiens, UniProt P11509); test: CYP inhibition in liver microsomes (coumarin)
T1 sequence (P11509 1-494): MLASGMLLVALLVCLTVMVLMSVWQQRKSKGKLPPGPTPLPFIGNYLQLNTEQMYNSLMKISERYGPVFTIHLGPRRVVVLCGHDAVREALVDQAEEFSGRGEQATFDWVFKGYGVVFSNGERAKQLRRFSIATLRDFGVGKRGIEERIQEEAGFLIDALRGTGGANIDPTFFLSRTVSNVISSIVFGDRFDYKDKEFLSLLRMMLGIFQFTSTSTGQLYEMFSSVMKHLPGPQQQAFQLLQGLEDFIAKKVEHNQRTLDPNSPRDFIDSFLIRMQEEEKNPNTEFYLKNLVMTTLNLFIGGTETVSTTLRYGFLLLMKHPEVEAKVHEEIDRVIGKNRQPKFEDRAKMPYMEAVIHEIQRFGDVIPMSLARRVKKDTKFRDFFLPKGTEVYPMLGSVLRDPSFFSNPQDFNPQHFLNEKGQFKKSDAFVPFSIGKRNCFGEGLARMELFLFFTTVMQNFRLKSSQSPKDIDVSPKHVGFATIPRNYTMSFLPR
Description: as §1, §2

[5] = Colon, farrerol racemate 66.00 μg·mL^−1
[6] = Colon, farrerol racemate 132.00 μg·mL^−1
[7] = Colon, farrerol racemate 132.00 μg·mL^−1 + verapamil
[8] = Colon, farrerol racemate 180.00 μg·mL^−1
[9] = Duodenum, farrerol racemate 66.00 μg·mL^−1
[10] = Duodenum, farrerol racemate 132.00 μg·mL^−1
[11] = Duodenum, farrerol racemate 132.00 μg·mL^−1 + verapamil
[12] = Duodenum, farrerol racemate 180.00 μg·mL^−1
[13] = Ileum, farrerol racemate 66.00 μg·mL^−1
[14] = Ileum, farrerol racemate 132.00 μg·mL^−1
[15] = Ileum, farrerol racemate 132.00 μg·mL^−1 + verapamil
[16] = Ileum, farrerol racemate 180.00 μg·mL^−1
[17] = Jejunum, farrerol racemate 66.00 μg·mL^−1
[18] = Jejunum, farrerol racemate 132.00 μg·mL^−1
[19] = Jejunum, farrerol racemate 132.00 μg·mL^−1 + verapamil
[20] = Jejunum, farrerol racemate 180.00 μg·mL^−1

Chain of CYP2D6 (P10635 whole entry): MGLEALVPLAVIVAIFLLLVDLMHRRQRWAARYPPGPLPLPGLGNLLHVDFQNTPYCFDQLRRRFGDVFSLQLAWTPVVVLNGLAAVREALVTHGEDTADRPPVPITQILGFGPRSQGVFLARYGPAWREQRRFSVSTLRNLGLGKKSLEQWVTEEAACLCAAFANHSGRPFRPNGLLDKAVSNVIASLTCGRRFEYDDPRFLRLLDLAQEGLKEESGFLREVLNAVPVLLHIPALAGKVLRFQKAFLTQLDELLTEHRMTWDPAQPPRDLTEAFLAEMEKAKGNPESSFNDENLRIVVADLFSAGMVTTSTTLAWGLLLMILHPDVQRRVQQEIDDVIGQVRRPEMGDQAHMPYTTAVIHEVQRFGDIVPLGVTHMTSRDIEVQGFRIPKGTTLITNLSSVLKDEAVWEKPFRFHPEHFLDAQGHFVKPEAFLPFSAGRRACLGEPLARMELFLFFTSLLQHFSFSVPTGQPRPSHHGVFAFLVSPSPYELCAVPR

SMILES	IC50 [1] [µM]	IC50 [2] [M]	Peff [3, 5]	Peff [3, 6]	Peff [3, 7]	Peff [3, 8]	Peff [3, 9]	Peff [3, 10]	Peff [3, 11]	Peff [3, 12]	Peff [3, 13]	Peff [3, 14]	Peff [3, 15]	Peff [3, 16]	Peff [3, 17]	Peff [3, 18]	Peff [3, 19]	Peff [3, 20]	IC50 [4] [µM]	IC50 ([4]; CYP 2A6, marker substrate coumarin, liver microsomes) [µM]
Cc1c(O)c(C)c2c(c1O)C(=O)CC(c1ccc(O)cc1)O2 (single isomer, unassigned; (+)) [(+)-farrerol, 2,3-dihydro-5,7-dihydroxy-2-(4-hydroxyphenyl)-6,8-dimethyl-4-benzopyrone]	> 50	> 5e-05	1.09 ± 0.37 ×10^−1 cm·min^−1	0.93 ± 0.09 ×10^−1 cm·min^−1	1.41 ± 0.23 ×10^−1 cm·min^−1	1.04 ± 0.12 ×10^−1 cm·min^−1	1.32 ± 0.03 ×10^−1 cm·min^−1	1.16 ± 0.11 ×10^−1 cm·min^−1	1.42 ± 0.17 ×10^−1 cm·min^−1	1.30 ± 0.14 ×10^−1 cm·min^−1	1.12 ± 0.22 ×10^−1 cm·min^−1	0.87 ± 0.08 ×10^−1 cm·min^−1	0.77 ± 0.11 ×10^−1 cm·min^−1	0.79 ± 0.04 ×10^−1 cm·min^−1	1.16 ± 0.23 ×10^−1 cm·min^−1	0.73 ± 0.03 ×10^−1 cm·min^−1	1.12 ± 0.10 ×10^−1 cm·min^−1	1.03 ± 0.06 ×10^−1 cm·min^−1	> 50	–
Cc1c(O)c(C)c2c(c1O)C(=O)CC(c1ccc(O)cc1)O2 (single isomer, unassigned; (-)) [(−)-farrerol, 2,3-dihydro-5,7-dihydroxy-2-(4-hydroxyphenyl)-6,8-dimethyl-4-benzopyrone]	> 50	2.09e-05	1.12 ± 0.41 ×10^−1 cm·min^−1	0.95 ± 0.10 ×10^−1 cm·min^−1	1.42 ± 0.23 ×10^−1 cm·min^−1	1.12 ± 0.17 ×10^−1 cm·min^−1	1.33 ± 0.03 ×10^−1 cm·min^−1	1.17 ± 0.10 ×10^−1 cm·min^−1	1.43 ± 0.17 ×10^−1 cm·min^−1	1.33 ± 0.11 ×10^−1 cm·min^−1	1.14 ± 0.22 ×10^−1 cm·min^−1	0.89 ± 0.10 ×10^−1 cm·min^−1	0.77 ± 0.11 ×10^−1 cm·min^−1	0.78 ± 0.07 ×10^−1 cm·min^−1	1.17 ± 0.24 ×10^−1 cm·min^−1	0.74 ± 0.05 ×10^−1 cm·min^−1	1.12 ± 0.10 ×10^−1 cm·min^−1	1.07 ± 0.10 ×10^−1 cm·min^−1	–	> 50
